Experimental data published in paper PMC12336439 (Archiv Der Pharmazie, 2025).
“Also recorded” adds a separate entry of the source. Where two headings read alike, the source gives them in different places.

Key:
[1] = molecular target: T1, USP7 (Homo sapiens, UniProt Q93009); test: Differential scanning fluorimetry (DSF), melting temperature shift of USP7; type: binding; settings: 8 µM protein, 250 µM compound (1:31.25)
T1 construct: USP7 catalytic domain (USP7CD) (208‐560); made in house
Description: The influence of the synthesized compounds on the melting temperature (T m) of USP7 and its mutant USP7asoc (active site only cysteine) was investigated by DSF. USP7asoc only retains the catalytic Cys223 while all the other six cysteines are mutated to serine. DSF was selected for initial assessment since it is an efficient and rapid primary screening method readily available to our lab.
An important consideration when assessing covalent inhibitors is the time dependence of covalent target occupancy and thus potency, which is determined by the reaction kinetics of the covalent binding event. To allow for drawing conclusions on compounds with slower reaction kinetics, incubation times of 30 min, 4 h, and 24 h at 20°C were chosen for the DSF screen with USP7 (Table 1 and Figures 2 and 3). The threshold at which compounds were considered (de‐)stabilizers was defined at 0.5°C. In parallel, the intrinsic reactivity of a set of representative compounds was evaluated in a glutathione reactivity assay. […] Data obtained from the GSH reactivity studies are shown in Supporting Information S2: Table S2.1 and Figures S2.1–2.3.
The melting temperatures of USP7 and USP7asoc in the presence or absence of fragments were determined by DSF on a Qiagen Rotor‐Q Model‐5‐Plex HRM real‐time PCR instrument (Qiagen, Hilden, Germany). SYPRO Orange (Life Technologies Corporation, Eugene, OR, USA) was used as a fluorescent dye at a final concentration of 5x. The protein concentration was 8 µM, and the final compound concentration was 250 µM, corresponding to a protein‐to‐compound ratio of 1:31.25. All compounds were dissolved in dimethyl sulfoxide (DMSO) and the proteins in Tris buffer (25 mM Tris pH 8.0, 150 mM NaCl, 5 mM TCEP, 5% (v/v) DMSO). All measurements were performed after 30 min, 4 h, and 24 h of incubation and at least in triplicate. DSF experiments were carried out with a constant heating rate of 270°C/h. The temperature was ramped from 28°C to 60°C–70°C with excitation and emission filters set at 470 nm and 610 nm, respectively. The melting temperatures (T m) of USP7 and USP7asoc were determined from the maxima of the first derivatives of the melting curves in OriginPro2020 (OriginLab, Northampton, MA, USA). The ∆T m was calculated by subtraction of the T m of the protein sample with pure DMSO from the T m of the protein sample mixed with compound. Error propagation was used to average multiple runs for a compound. A compound was considered to be a hit if the shift in the ∆T m was at least 0.50°C [55].

[2] = molecular target: T2, USP7asoc (Homo sapiens, UniProt Q93009, C300S/C315S/C334S/C478S/C488S/C510S); test: Intact protein MS (UHPLC-ESI-MS), covalent modification of USP7asoc; type: binding; settings: 24 h incubation at 20°C, protein-to-compound ratio 1:31.25
T2 construct: (208‐560, C300/315/334/448/478/510S); made in house
Protocol: The DSF results described above were validated by UHPLC‐ESI‐MS to verify possible covalent binding through a corresponding mass shift. Intact protein MS is an important screening method in irreversible‐covalent hit identification and is especially suitable for covalent fragment‐based drug discovery (FBDD). It allows for the identification of covalent binders by detecting covalent protein‐compound adducts, thus making use of the stability of the covalent bond. USP7 was prepared in Tris buffer (25 mM Tris pH 8.0, 150 mM NaCl, 5 mM TCEP) with a protein‐to‐compound ratio of 1:31.25 and 5% (v/v) DMSO. The protein‐compound mixtures were all incubated at 20°C for 24 h on a rotating shaker. The analysis of intact protein mass was carried out using UHPLC‐ESI‐MS measurements, with data acquisition and data analysis as previously described.

[3] = molecular target: T3, USP7asoc (active site only cysteine) (Homo sapiens, UniProt Q93009, C300S/C315S/C334S/C478S/C488S/C510S); test: Differential scanning fluorimetry (DSF), melting temperature shift of USP7asoc mutant; type: binding; settings: 8 µM protein, 250 µM compound (1:31.25)
T3 construct: (208‐560, C300/315/334/448/478/510S); made in house
Protocol: USP7asoc only retains the catalytic Cys223 while all the other six cysteines are mutated to serine. DSF was selected for initial assessment since it is an efficient and rapid primary screening method readily available to our lab. […] An important consideration when assessing covalent inhibitors is the time dependence of covalent target occupancy and thus potency, which is determined by the reaction kinetics of the covalent binding event. To allow for drawing conclusions on compounds with slower reaction kinetics, incubation times of 30 min, 4 h, and 24 h at 20°C were chosen for the DSF screen with USP7 (Table 1 and Figures 2 and 3). The threshold at which compounds were considered (de‐)stabilizers was defined at 0.5°C. In parallel, the intrinsic reactivity of a set of representative compounds was evaluated in a glutathione reactivity assay. […] The expression and purification of USP7 catalytic domain (USP7CD) (208‐560) and USP7asoc (active site only cysteine) by using a pET24a(+)_HLT_USP7 construct were performed as previously described. […] For the USP7asoc, six of the seven cysteines are mutated to serines (208‐560, C300/315/334/448/478/510S). All utilized protein sequences are depicted in Supporting Information S2: Table S.3.1. The melting temperatures of USP7 and USP7asoc in the presence or absence of fragments were determined by DSF on a Qiagen Rotor‐Q Model‐5‐Plex HRM real‐time PCR instrument (Qiagen, Hilden, Germany). SYPRO Orange (Life Technologies Corporation, Eugene, OR, USA) was used as a fluorescent dye at a final concentration of 5x. The protein concentration was 8 µM, and the final compound concentration was 250 µM, corresponding to a protein‐to‐compound ratio of 1:31.25. All compounds were dissolved in dimethyl sulfoxide (DMSO) and the proteins in Tris buffer (25 mM Tris pH 8.0, 150 mM NaCl, 5 mM TCEP, 5% (v/v) DMSO). All measurements were performed after 30 min, 4 h, and 24 h of incubation and at least in triplicate. DSF experiments were carried out with a constant heating rate of 270°C/h. The temperature was ramped from 28°C to 60°C–70°C with excitation and emission filters set at 470 nm and 610 nm, respectively. The melting temperatures (T m) of USP7 and USP7asoc were determined from the maxima of the first derivatives of the melting curves in OriginPro2020 (OriginLab, Northampton, MA, USA). The ∆T m was calculated by subtraction of the T m of the protein sample with pure DMSO from the T m of the protein sample mixed with compound. Error propagation was used to average multiple runs for a compound. A compound was considered to be a hit if the shift in the ∆T m was at least 0.50°C [55].

[4] = molecular target: T1, USP7; test: Intact protein MS (UHPLC-ESI-MS), covalent modification of USP7; type: binding; settings: 24 h incubation at 20°C, protein-to-compound ratio 1:31.25
Protocol: The DSF results described above were validated by UHPLC‐ESI‐MS to verify possible covalent binding through a corresponding mass shift. Intact protein MS is an important screening method in irreversible‐covalent hit identification and is especially suitable for covalent fragment‐based drug discovery (FBDD). It allows for the identification of covalent binders by detecting covalent protein‐compound adducts, thus making use of the stability of the covalent bond.
USP7 was prepared in Tris buffer (25 mM Tris pH 8.0, 150 mM NaCl, 5 mM TCEP) with a protein‐to‐compound ratio of 1:31.25 and 5% (v/v) DMSO. The protein‐compound mixtures were all incubated at 20°C for 24 h on a rotating shaker. The analysis of intact protein mass was carried out using UHPLC‐ESI‐MS measurements, with data acquisition and data analysis as previously described.

[5] = molecular target: T1, USP7; set-up: method as in PMID 40165995; settings: 24 h incubation at 20°C, ratio 1:31.25; spectra reported previously; cited from earlier work
[6] = molecular target: T2, USP7asoc; set-up: method as in PMID 40165995; settings: 24 h incubation at 20°C, ratio 1:31.25; spectra reported previously; cited from earlier work

T1 sequence (Q93009 with tags, fused parts or gaps): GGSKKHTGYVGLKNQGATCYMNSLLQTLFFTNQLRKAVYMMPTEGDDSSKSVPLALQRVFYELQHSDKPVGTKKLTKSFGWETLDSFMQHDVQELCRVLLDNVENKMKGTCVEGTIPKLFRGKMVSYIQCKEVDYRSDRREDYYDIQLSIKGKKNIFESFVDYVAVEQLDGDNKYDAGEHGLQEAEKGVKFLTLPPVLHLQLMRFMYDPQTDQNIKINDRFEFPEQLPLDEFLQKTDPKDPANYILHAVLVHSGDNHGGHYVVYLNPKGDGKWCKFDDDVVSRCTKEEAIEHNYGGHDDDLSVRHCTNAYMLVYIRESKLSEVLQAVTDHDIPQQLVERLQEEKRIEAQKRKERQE
T3 sequence (Q93009 with tags, fused parts or gaps C300S/C315S/C334S/C478S/C488S/C510S): as the sequence (Q93009 with tags, fused parts or gaps) above, with C96S, C111S, C130S, C274S, C284S, C306S counted along it
T2 sequence (Q93009 with tags, fused parts or gaps C300S/C315S/C334S/C478S/C488S/C510S): as the sequence (Q93009 with tags, fused parts or gaps) above, with C96S, C111S, C130S, C274S, C284S, C306S counted along it

| Compound | ∆T m ± SD USP7 ([1]; 30 min incubation at 20°C) | ∆T m ± SD USP7 ([1]; 4 h incubation at 20°C) [°C] | ∆T m ± SD USP7 ([1]; 24 h incubation at 20°C) | protein species in deconvoluted mass spectrum of USP7asoc [2] | ∆T m ± SD USP7asoc ([3]; 30 min incubation at 20°C) [°C] | ∆T m ± SD USP7asoc ([3]; 4 h incubation at 20°C) | ∆T m ± SD USP7asoc ([3]; 24 h incubation at 20°C) | protein species in deconvoluted mass spectrum of USP7 [4] | protein species in deconvoluted mass spectrum of USP7 [5] | protein species in deconvoluted mass spectrum of USP7asoc [6] |
| --- | --- | --- | --- | --- | --- | --- | --- | --- | --- | --- |
| CCn1cc(-c2cccc3cnc(Nc4nc(Cl)ccc4[N+](=O)[O-])cc23)cn1 [8c, N‐(6‐Chloro‐3‐nitropyridin‐2‐yl)‐5‐(1‐ethyl‐1H‐pyrazol‐4‐yl)isoquinolin‐3‐amine] | –0.15 ± 0.12 °C | 0.15 ± 0 | 0.15 ± 0 °C | only unmodified USP7 and USP7asoc were detected with a smaller peak corresponding to the single‐arylated protein species | 0.05 ± 0.09 | 0.25 ± 0.12 °C | 0.33 ± 0.08 °C | only unmodified USP7 and USP7asoc were detected with a smaller peak corresponding to the single‐arylated protein species |  |  |
| O=[N+]([O-])c1ccc(Cl)nc1Nc1cc2c(-c3ccc(-c4ccncc4)cc3)cccc2cn1 [8i, N‐(6‐Chloro‐3‐nitropyridin‐2‐yl)‐5‐[4‐(pyridin‐4‐yl)phenyl]isoquinolin‐3‐amine] | 0.05 ± 0.09 °C |  | –0.03 ± 0.11 °C | unmodified USP7 and USP7asoc as the main peak | 0.10 ± 0.17 | –0.15 ± 0.15 °C | –0.15 ± 0.12 °C | unmodified USP7 and USP7asoc as the main peak |  |  |
| Cn1cc(-c2cccc3cnc(Nc4nc(Cl)ccc4[N+](=O)[O-])cc23)cn1 [8a, N‐(6‐Chloro‐3‐nitropyridin‐2‐yl)‐5‐(1‐methyl‐1H‐pyrazol‐4‐yl)isoquinolin‐3‐amine] | 0.20 ± 0.09 °C | 0.45 ± 0 | 0.20 ± 0.09 °C |  | 0.10 ± 0.27 | 0.10 ± 0.09 °C | 0.10 ± 0.09 °C |  | unmodified and mono‐arylated protein species were visible with nearly the same intensity | unmodified protein species as the main peak |
| O=[N+]([O-])c1ccc(F)nc1Nc1cc2c(-c3ccc(-c4cccnc4)cc3)cccc2cn1 [7h, N‐(6‐Fluoro‐3‐nitropyridin‐2‐yl)‐5‐[4‐(pyridin‐3‐yl)phenyl]isoquinolin‐3‐amine] | 0.00 ± 0.12 °C | 0.15 ± 0 | 0.20 ± 0.09 °C | the unmodified protein species was again dominant; also recorded: unmodified USP7 and USP7asoc as the main peak | 0.30 ± 0 | 0.35 ± 0.09 °C | 0.35 ± 0.04 °C | the unmodified protein species was again dominant; also recorded: unmodified USP7 and USP7asoc as the main peak |  |  |
